# Source: patent US9993000B2, “Isosorbide ether derivatives with preservation activity” (BASF SE, priority 2015, dated 2018)
# Test system: Malassezia furfur
# Experiment: Minimum Inhibitory Concentration (MIC) according to DIN 58 940
# Format: cell-based
# Details: Malasse zia furfur
# Source text: (§1) MIC: Determination of Minimum Inhibitory Concentration (MIC) according to DIN 58 940
row,MIC,Compound
1,≤20 ppm,CCCCCCCCCCC(O)COC1COC2C(O)COC12 (stereo not drawn) [Compound (4)]
2,≤2500 ppm,CCCCCCCCC(O)COC1COC2C(O)COC12 (stereo not drawn) [Compound (3)]

# More lines, now with the values behind:
row,Compound,MIC
1,CCCCCCCCCCCCOC1COC2C(O)COC12 (stereo not drawn) [Compound (2)],"2,500 ppm"
2,CCCCCCCCOC1COC2C(O)COC12 (stereo not drawn) [Compound (1)],"<1,000 ppm"
3,"CCCCCCCCOC1COC2C(OCCCCCCCC)COC12 (stereo not drawn) [Comperative compound (1), reference compound]",">10,000 ppm"

# Test system: Propionibacterium acnes
# Experiment: as above
# Format: cell-based
# Details: not given
# Source text: as §1
row,MIC,Compound
1,<100 ppm,CCCCCCCCCCC(O)COC1COC2C(O)COC12 (stereo not drawn) [Compound (4)]
2,<50 ppm,CCCCCCCCC(O)COC1COC2C(O)COC12 (stereo not drawn) [Compound (3)]

# Continued, compound first:
row,Compound,MIC
1,CCCCCCCCCCCCOC1COC2C(O)COC12 (stereo not drawn) [Compound (2)],≤20 ppm
2,CCCCCCCCOC1COC2C(O)COC12 (stereo not drawn) [Compound (1)],<500 ppm
3,"CCCCCCCCOC1COC2C(OCCCCCCCC)COC12 (stereo not drawn) [Comperative compound (1), reference compound]",">10,000 ppm"

# Test system: Aspergillus brasiliensis
# Experiment: as above
# Format: cell-based
# Details: Asperigillus brasiliensis
# Source text: as §1
row,MIC,Compound
1,<200 ppm,CCCCCCCCCCC(O)COC1COC2C(O)COC12 (stereo not drawn) [Compound (4)]
2,<1000 ppm,CCCCCCCCC(O)COC1COC2C(O)COC12 (stereo not drawn) [Compound (3)]

# More lines, now with the values behind:
row,Compound,MIC
1,CCCCCCCCCCCCOC1COC2C(O)COC12 (stereo not drawn) [Compound (2)],≤20 ppm
2,CCCCCCCCOC1COC2C(O)COC12 (stereo not drawn) [Compound (1)],<200 ppm
3,"CCCCCCCCOC1COC2C(OCCCCCCCC)COC12 (stereo not drawn) [Comperative compound (1), reference compound]",">10,000 ppm"

# Test system: Brevibacterium epidermis
# Experiment: as above
# Format: cell-based
# Details: not given
# Source text: as §1
row,MIC,Compound
1,≤20 ppm,CCCCCCCCCCC(O)COC1COC2C(O)COC12 (stereo not drawn) [Compound (4)]
2,≤200 ppm,CCCCCCCCC(O)COC1COC2C(O)COC12 (stereo not drawn) [Compound (3)]

# Further lines, the compound ahead of its results:
row,Compound,MIC
1,CCCCCCCCCCCCOC1COC2C(O)COC12 (stereo not drawn) [Compound (2)],≤20 ppm
2,CCCCCCCCOC1COC2C(O)COC12 (stereo not drawn) [Compound (1)],<500 ppm
3,"CCCCCCCCOC1COC2C(OCCCCCCCC)COC12 (stereo not drawn) [Comperative compound (1), reference compound]",">10,000 ppm"

# Test system: Staphylococcus aureus
# Experiment: as above
# Format: cell-based
# Details: not given
# Source text: as §1
row,MIC,Compound
1,<100 ppm,CCCCCCCCCCC(O)COC1COC2C(O)COC12 (stereo not drawn) [Compound (4)]
2,<500 ppm,CCCCCCCCC(O)COC1COC2C(O)COC12 (stereo not drawn) [Compound (3)]

# The next lines start with the compound.
row,Compound,MIC
1,CCCCCCCCCCCCOC1COC2C(O)COC12 (stereo not drawn) [Compound (2)],<50 ppm
2,CCCCCCCCOC1COC2C(O)COC12 (stereo not drawn) [Compound (1)],<500 ppm
3,"CCCCCCCCOC1COC2C(OCCCCCCCC)COC12 (stereo not drawn) [Comperative compound (1), reference compound]",">10,000 ppm"

# Test system: Escherichia coli
# Experiment: as above
# Format: cell-based
# Details: not given
# Source text: as §1
row,MIC,Compound
1,"<2,000 ppm",CCCCCCCCCCC(O)COC1COC2C(O)COC12 (stereo not drawn) [Compound (4)]
2,"<2,000 ppm",CCCCCCCCC(O)COC1COC2C(O)COC12 (stereo not drawn) [Compound (3)]

# The next lines start with the compound.
row,Compound,MIC
1,CCCCCCCCCCCCOC1COC2C(O)COC12 (stereo not drawn) [Compound (2)],">10,000 ppm"
2,CCCCCCCCOC1COC2C(O)COC12 (stereo not drawn) [Compound (1)],"<1,000 ppm"
3,"CCCCCCCCOC1COC2C(OCCCCCCCC)COC12 (stereo not drawn) [Comperative compound (1), reference compound]",">10,000 ppm"

# Test system: Staphylococcus epidermis
# Experiment: as above
# Format: cell-based
# Details: not given
# Source text: as §1
row,MIC,Compound
1,≤20 ppm,CCCCCCCCCCC(O)COC1COC2C(O)COC12 (stereo not drawn) [Compound (4)]
2,≤20 ppm,CCCCCCCCC(O)COC1COC2C(O)COC12 (stereo not drawn) [Compound (3)]

# Second part, the compound before the results:
row,Compound,MIC
1,CCCCCCCCCCCCOC1COC2C(O)COC12 (stereo not drawn) [Compound (2)],≤20 ppm
2,CCCCCCCCOC1COC2C(O)COC12 (stereo not drawn) [Compound (1)],<100 ppm
3,"CCCCCCCCOC1COC2C(OCCCCCCCC)COC12 (stereo not drawn) [Comperative compound (1), reference compound]",<200 ppm

# Test system: Candida albicans
# Experiment: as above
# Format: cell-based
# Details: not given
# Source text: as §1
row,MIC,Compound
1,≤20 ppm,CCCCCCCCCCC(O)COC1COC2C(O)COC12 (stereo not drawn) [Compound (4)]
2,≤100 ppm,CCCCCCCCC(O)COC1COC2C(O)COC12 (stereo not drawn) [Compound (3)]

# Second part, the compound before the results:
row,Compound,MIC
1,CCCCCCCCCCCCOC1COC2C(O)COC12 (stereo not drawn) [Compound (2)],≤20 ppm
2,CCCCCCCCOC1COC2C(O)COC12 (stereo not drawn) [Compound (1)],<50 ppm
3,"CCCCCCCCOC1COC2C(OCCCCCCCC)COC12 (stereo not drawn) [Comperative compound (1), reference compound]",">10,000 ppm"

# Test system: Pseudomonas aeruginosa
# Experiment: as above
# Format: cell-based
# Details: not given
# Source text: as §1
row,MIC,Compound
1,"<1,000 ppm",CCCCCCCCCCC(O)COC1COC2C(O)COC12 (stereo not drawn) [Compound (4)]
2,"<1,000 ppm",CCCCCCCCC(O)COC1COC2C(O)COC12 (stereo not drawn) [Compound (3)]

# Second part, the compound before the results:
row,Compound,MIC
1,CCCCCCCCCCCCOC1COC2C(O)COC12 (stereo not drawn) [Compound (2)],">10,000 ppm"
2,CCCCCCCCOC1COC2C(O)COC12 (stereo not drawn) [Compound (1)],"<1,000 ppm"
3,"CCCCCCCCOC1COC2C(OCCCCCCCC)COC12 (stereo not drawn) [Comperative compound (1), reference compound]",">10,000 ppm"
